“And” between values parts separate entries of the source, which are not always exact repeats. Equal values may be shown once.
Columns and labels:
[1] = tested on: HEK293 cells stably expressing αS-A53T-YFP; experiment: ProteoStat dye assay and confocal imaging, ligand post treatment, αS fibers templated intracellular aggregation; format: cell-based, human
Method: To test the antagonist activity of NS163 against intracellular αS aggregation, we utilized HEK293 cells, which stably express αS-A53T-YFP[23],[24],[50]. The endogenous monomeric αS-A53T-YFP template into fibers when transfected with exogenously added αS fibers in the presence of Lipofectamine 3000 (Fig. 3a)[23],[24],[50]. In this assay, preformed fibers of αS (5 µM monomer concentration) were introduced to the HEK cells, followed by the introduction of NS163 to the cells after 8 h, which is the time required for the internalization of aS fibers, as we have shown recently. The HEK cells were incubated for an additional […], which is the total time (24 h) required for the complete maturation of aS inclusions in the HEK cells. To test the effect of the NS163 on the intracellular inclusions (αS-A53T-YFP), we used confocal imaging and a ProteoStat dye-based assay recently developed in our lab[24]. […] NS163 was able to reduce the intracellular inclusions of αS by 76% and 90% at 10 µM and 25 µM, respectively, measured using the ProteoStat dye-based assay (Fig. 5h, +NS163). […] To test their antagonist activity against intracellular αS aggregation, we first determined the cell permeability of the tripyridyls using the PAMPA (Fig. 5a, Supplementary Fig. 18a). […]

UA196 worms = experiment: ROS level in post-disease onset PD model of UA196 worms; format: in vivo, C. elegans
Method: The UA196 worms were bleached, and the eggs were incubated on PLATE 1. On day two, the UA196 worms were transferred (using M9 buffer) on PLATE 2 (without ligand). On day five, 100 UA196 worms were used to determine the ROS level (as described earlier) prior to the treatment with ligands on day five. In tandem, ~200 worms were transferred to PLATE 3 (with ligand) using M9 buffer (10-20 µL) and the plate was incubated at 20 °C in the incubator. On day 8, 100 UA196 worms from PLATE 2 (without ligand) and PLATE 3 (with ligand) were used to determine the ROS level (as described earlier). For each condition, three biological replicates were performed, and 3 technical replicates were used for each biological replicate. […] (n = 3 independent experiments and each n consisted of 3 technical replicates).

SMILES: Cc1ccc(NC(=O)c2ccc(NC(=O)c3ccc([N+](=O)[O-])c(NCCc4c[nH]c5ccccc45)n3)c(NCC3CCCCC3)n2)c(OCC(=O)O)n1 [NS132]
- ProteoStat dye intensity (raw), individual trials ([1]; 5 μM αS fibers, ligand 10 uM added after 8 h): 108 and 126 and 118 and 122 and 111 and 132 and 128 and 121 and 105 and 116 and 120 and 113
- reduction of intracellular inclusions of αS (ProteoStat) ([1]; ligand 10 µM added 8 h after 5 µM αS fibers): 47%
- ROS level in UA196 worms, post-disease model, in words (UA196 worms; 50 μM ligand on day five, ROS on day eight): very effective in decreasing the ROS level
- ROS level (dye fluorescence), Average (UA196 worms; UA196+NS132, Day 5 (same value as UA196 control)): 1262.3
- ROS level (dye fluorescence), Average (UA196 worms; UA196+NS132, Day 8): 733.721

Source: article PMC11061149, “Protein mimetic 2D FAST rescues alpha synuclein aggregation mediated early and post disease Parkinson’s phenotypes” (Nature Communications, 2024)
